Each structure is given as a SMILES string.

One assay concerns the target T1, Human GPR120 short form (Homo sapiens, UniProt Q5NUL3).
T1 construct: expressed in transfected cells
T1 sequence (Q5NUL3 1-361): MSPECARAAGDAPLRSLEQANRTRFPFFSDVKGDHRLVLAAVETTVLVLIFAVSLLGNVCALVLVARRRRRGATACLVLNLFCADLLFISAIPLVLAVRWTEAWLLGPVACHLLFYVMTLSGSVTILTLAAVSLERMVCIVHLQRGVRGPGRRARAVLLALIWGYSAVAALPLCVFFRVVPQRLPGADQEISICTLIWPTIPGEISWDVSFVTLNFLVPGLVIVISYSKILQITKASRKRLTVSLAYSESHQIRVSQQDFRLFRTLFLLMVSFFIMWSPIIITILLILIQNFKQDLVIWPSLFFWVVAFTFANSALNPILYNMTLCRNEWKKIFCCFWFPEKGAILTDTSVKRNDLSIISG
The assay can be described thus: Human GPR120 calcium flux assay, Procedure Calcium B (4200 cells/well). The class given is cell-based. How it is done: Human GPR120 in Calcium Flux Assay
These cells are first loaded with the Ca^+2 sensitive dye, Fluo-4 NW. Upon stimulation, intracellular released Ca^+2 can bind to the dye and alter its fluorescence intensity. This increase in fluorescence signal, and thus the flux in intracellular [Ca^2+], is detected and quantitated by fluorescence imaging using a FLIPR reader. The effect of the agonist is measured as a function of concentration and used to calculate an EC50 based upon a response curve.
In this procedure 4200 cells/well were employed.
A Human GPR120 clone (Genbank accession number NM_001195755.1) was placed into the pcDNA3.1 mammalian expression vector carrying the neomycin resistance gene. A stable mammalian cell was generated by placing the above clone into a HEK293 background. […] Cells were split 2 times a week to keep the cells in the log-phase growth. […]
The assay was performed on a FLIPR plate reader using the following parameters. Baseline was read for 10 seconds at 1 sec intervals. The program was set to transfer 10 μL of ligand from compound plate to cell plate after baseline reading. Aspiration was executed at: 10 μL/sec speed, 4.6 μL height, Dispensing was executed at: 30 μL/sec speed, 45 μL height. After compound addition, each well was read for 300 sec, with measurements collected at 1 sec intervals.
The kinetic data from the FLIPR was based upon a 5 minute window for data collection. The fluorescence of each sample well was used for individual calculations of a normalized RFU value, which was defined as maximum response minus the minimum response. The normalized fluorescence reading (RFU) was calculated as follows: RFU=Fmax−Fmin
The Fitting Equation was: Y=Bottom+(Top-Bottom)/(1+10^((Log EC50−X)*HillSlope)), where X is the log of the concentration and Y is the response.

A further assay deals with T2, human GPR40 (Homo sapiens, UniProt O14842).
T2 construct: expressed in transfected cells
Nature of the assay: GPR40 calcium flux assay, human GPR40. Type of assay: cell-based. The settings on record: HEK293 cells stably expressing GPR40; table does not say human or rat. How it is done:
Compounds were tested in a calcium flux assay using transfected HEK293 cells stably expressing either human GPR40 or rat GPR40. Human GPR40 expressing cells were cultured in DMEM−High Glucose media supplemented with 10% fetal bovine serum, 1×L-Glutamine, 1×Penicillin/Streptomycin and 500 μg/mL G418. Rat GPR40 expressing cells were cultured in DMEM−High Glucose media supplemented with 10% fetal bovine serum and 1 μg/mL puromycin. Cells were plated into poly-D-lysine coated 384-well plates and cultured overnight in a 37° C. humidified tissue culture incubator under 5% CO2/[…] atmosphere.
On the day of the experiment, the culture media was replaced with assay buffer (HBSS, 20 mM HEPES, 0.1% BSA) and the cells incubated at 37° C. for 1 h. Calcium-sensitive fluorescent dye (Fluo 8 No-Wash Calcium Dye, ABD Bioquest) was then added and the cells incubated for another 30 min at 37° C. followed by 15 min at room temperature while protected from the light. The cell plate and a plate of diluted compounds of Formula (I) were loaded into a fluorescent plate reader that added compounds onto the cells while measuring the fluorescence intensity of each well. The plate reader recorded fluorescence intensity at 1 second intervals for 8 min and provided the data for analysis in an Excel format. EC50 values were calculated using Prism (GraphPad) software.

T2 sequence (O14842 whole entry): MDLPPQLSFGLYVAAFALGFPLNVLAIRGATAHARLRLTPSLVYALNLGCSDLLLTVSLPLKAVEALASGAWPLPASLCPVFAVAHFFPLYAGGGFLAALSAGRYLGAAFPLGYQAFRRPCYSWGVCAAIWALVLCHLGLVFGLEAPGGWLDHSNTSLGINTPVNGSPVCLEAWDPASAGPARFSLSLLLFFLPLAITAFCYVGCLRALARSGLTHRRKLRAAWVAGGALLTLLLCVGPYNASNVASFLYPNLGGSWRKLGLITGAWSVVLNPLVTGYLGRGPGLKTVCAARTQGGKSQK

As for `Cc1ccc(C2=C(COc3ccc(CCC(=O)O)c(C(F)(F)F)c3)CCC2)c(C(C)C)c1` [Compound 331, 3-[4-[[2-(2-isopropyl-4-methyl-phenyl)cyclopenten-1-yl]methoxy]-2-(trifluoromethyl)phenyl]Propanoic Acid], the EC50 on Human GPR120 short form was over 5000 nM; on human GPR40, 3340 nM.
For `C=Cc1cc(OCC2=C(C3CCCC3)CCC2)ccc1CCC(=O)O` [Compound 442, 3-[4-[(2-cyclopentylcyclopenten-1-yl)methoxy]-2-vinyl-phenyl]Propanoic Acid], the EC50 on Human GPR120 short form turned out to be 334 nM; on human GPR40, 48 nM.
The matching figures for `CCCC1=C(COc2ccc(CCC(=O)O)c(C(F)(F)F)c2)CCC1` [Compound 389, 3-[4-[(2-propylcyclopenten-1-yl)methoxy]-2-(trifluoromethyl)phenyl]Propanoic Acid]: 750 nM and 51 nM.
As to `Cc1c(CCC(=O)O)ccc(OCC2=C(c3ccc(Cl)cc3)CCC(C)(C)C2)c1C` [Compound 541, 3-[4-[[2-(4-chlorophenyl)-5,5-dimethyl-cyclohexen-1-yl]methoxy]-2,3-dimethyl-phenyl]Propanoic Acid], the figures for the EC50 on Human GPR120 short form and on human GPR40 were 1500 nM and 4760 nM, respectively.
On to `O=C(O)CCc1ccc(OCC2=C(c3ccc(Cl)cc3F)CCC2)cc1C(F)(F)F` [Compound 285, 3-[4-[[2-(4-chloro-2-fluoro-phenyl)cyclopenten-1-yl]methoxy]-2-(trifluoromethyl)phenyl]Propanoic Acid], for which the EC50 worked out at 328 nM on Human GPR120 short form and 108 nM at human GPR40.
Turning to `Cc1c(CCC(=O)O)ccc(OCC2=C(c3ccc(Cl)cc3)C(C(C)C)CCC2)c1C` (centres unmarked) [Compound 523, 3-[4-[[2-(4-chlorophenyl)-3-isopropyl-cyclohexen-1-yl]methoxy]-2,3-dimethyl-phenyl]Propanoic Acid], the EC50 on Human GPR120 short form and on human GPR40 was over 5000 nM throughout.
Regarding `Cc1cc(OCC2=C(c3ccc(Cl)cc3)CCC2C)c(F)cc1CCC(=O)O` (centres unmarked) [Compound 333, 3-[4-[[2-(4-chlorophenyl)-5-methyl-cyclopenten-1-yl]methoxy]-5-fluoro-2-methyl-phenyl]Propanoic Acid], the half-maximal effective concentration (EC50) turned out to be 427 nM at Human GPR120 short form and 1010 nM at human GPR40.
In the case of `Cc1c(CCC(=O)O)ccc(OCC2=C(C3CCC(F)(F)CC3)CCC2)c1C` [Compound 413, 3-[4-[[2-(4,4-difluorocyclohexyl)cyclopenten-1-yl]methoxy]-2,3-dimethyl-phenyl]Propanoic Acid], the values for the EC50 on Human GPR120 short form and at human GPR40 were 1800 nM and over 10000 nM, respectively.
Take `O=C(O)CCc1ccc(OCC2=C(c3ccccc3)CC(F)(F)C2)cc1Cl` [Compound 242, 3-[2-chloro-4-[(4,4-difluoro-2-phenyl-cyclopenten-1-yl)methoxy]phenyl]Propanoic Acid]: the figures for the EC50 at Human GPR120 short form and at human GPR40 were 146 nM and 836 nM, respectively.
`O=C(O)CCc1ccc(OCC2=C(c3ccc(Cl)cc3)CC(F)(F)C2)cc1C(F)(F)F` [Compound 248, 3-[4-[[2-(4-chlorophenyl)-4,4-difluoro-cyclopenten-1-yl]methoxy]-2-(trifluoromethyl)phenyl]Propanoic Acid]: the EC50 on Human GPR120 short form came to 361 nM; at human GPR40, 188 nM.
Take `Cc1cc(CCC(=O)O)ccc1OCC1=C(c2ccco2)CCC1` [Compound 208, 3-[4-[[2-(2-furyl)cyclopenten-1-yl]methoxy]-3-methyl-phenyl]Propanoic Acid]: the EC50 on Human GPR120 short form was 185 nM; on human GPR40, over 5000 nM.
For the molecule `CC(C)CC1=C(COc2ccc(CCC(=O)O)c(C(F)(F)F)c2)CC(F)(F)C1` [Compound 381, 3-[4-[(4,4-difluoro-2-isobutyl-cyclopenten-1-yl)methoxy]-2-(trifluoromethyl)phenyl]Propanoic Acid], the EC50 at Human GPR120 short form amounted to 1650 nM; at human GPR40 it was 150 nM.
For the molecule `Cc1cc(CCC(=O)O)cc(Cl)c1OCC1=C(c2ccc(F)cc2)CCC1` [Compound 236, 3-[3-chloro-4-[[2-(4-fluorophenyl)cyclopenten-1-yl]methoxy]-5-methyl-phenyl]Propanoic Acid], the half-maximal effective concentration (EC50) was 1270 nM at Human GPR120 short form and over 5000 nM at human GPR40.
On to `O=C(O)CCc1ccc(OCC2=C(C3CCCC3)CCCC2)cc1Cl` [Compound 594, 3-[2-chloro-4-[(2-cyclopentylcyclohexen-1-yl)methoxy]phenyl]Propanoic Acid], for which the EC50 is 362 nM on Human GPR120 short form and over 10000 nM at human GPR40.
Regarding `Cc1ccc(C2=C(COc3cc(C)c(CCC(=O)O)cc3F)CCC2)cc1F` [Compound 264, 3-[5-fluoro-4-[[2-(3-fluoro-4-methyl-phenyl)cyclopenten-1-yl]methoxy]-2-methyl-phenyl]Propanoic Acid], the results for the EC50 on Human GPR120 short form and at human GPR40 were 103 nM and 1590 nM, respectively.
On the same counts, the results for `Cc1ccc(C2=C(COc3ccc(CCC(=O)O)c(Cl)c3)CCC2)c(F)c1` [Compound 273, 3-[2-chloro-4-[[2-(2-fluoro-4-methyl-phenyl)cyclopenten-1-yl]methoxy]phenyl]Propanoic Acid] are 213 nM and 1040 nM.
On the same counts, the results for `O=C(O)CCc1ccc(OCC2=C(c3ccc(Br)cc3)CCC2)cc1C(F)(F)F` [Compound 269, 3-[4-[[2-(4-bromophenyl)cyclopenten-1-yl]methoxy]-2-(trifluoromethyl)phenyl]Propanoic Acid] are 2240 nM and 604 nM.
On the same counts, the results for `Cc1ccc(C2=C(COc3ccc(CCC(=O)O)c(C(F)(F)F)c3)CCC2)c(C)c1` [Compound 247, 3-[4-[[2-(2,4-dimethylphenyl)cyclopenten-1-yl]methoxy]-2-(trifluoromethyl)phenyl]Propanoic Acid] are 3060 nM and 388 nM.
As to `O=C(O)CCc1ccc(OCC2=C(Cc3nccs3)CCC2)cc1C(F)(F)F` [Compound 440, 3-[4-[[2-(thiazol-2-ylmethyl)cyclopenten-1-yl]methoxy]-2-(trifluoromethyl)phenyl]Propanoic Acid], the EC50 was determined as 2800 nM at Human GPR120 short form and 382 nM on human GPR40.
Take `Cc1cc(OCC2=C(c3ccc(Cl)c(F)c3)CCC2)c(F)cc1CCC(=O)O` [Compound 280, 3-[4-[[2-(4-chloro-3-fluoro-phenyl)cyclopenten-1-yl]methoxy]-5-fluoro-2-methyl-phenyl]Propanoic Acid]: the EC50 is 346 nM at Human GPR120 short form and 471 nM at human GPR40.
On to `O=C(O)CCc1ccc(OCC2=C(Cc3ccc(Cl)cc3)CCC2)cc1C(F)(F)F` [Compound 359, 3-[4-[[2-[(4-chlorophenyl)methyl]cyclopenten-1-yl]methoxy]-2-(trifluoromethyl)phenyl]Propanoic Acid], for which the EC50 on Human GPR120 short form turned out to be 3110 nM; on human GPR40, 81 nM.
On the same counts, the results for `O=C(O)CCc1ccc(OCC2=C(C3C=CCC3)CCC2)cc1Cl` (centres unmarked) [Compound 451, 3-[2-chloro-4-[(2-cyclopent-2-en-1-ylcyclopenten-1-yl)methoxy]phenyl]Propanoic Acid] are 249 nM and 32 nM.
`Cc1ccc(C2=C(COc3ccc(CCC(=O)O)cc3)CCC2)c(O)c1` [Compound 213]: the results for the EC50 at Human GPR120 short form and on human GPR40 were 776 nM and over 5000 nM, respectively.
For `O=C(O)CCc1ccc(OCC2=C(c3ccc(F)cc3)CC(F)(F)C2)cc1Cl` [Compound 401, 3-[2-chloro-4-[[4,4-difluoro-2-(4-fluorophenyl)cyclopenten-1-yl]methoxy]phenyl]Propanoic Acid], the EC50 amounted to 304 nM on Human GPR120 short form and 311 nM at human GPR40.
In the case of `O=C(O)CCc1ccc(OCC2=C(C3CC3)CCC2)cc1C(F)(F)F` [Compound 351, 3-[4-[(2-cyclopropylcyclopenten-1-yl)methoxy]-2-(trifluoromethyl)phenyl]Propanoic Acid], the EC50 was over 5000 nM at Human GPR120 short form and 1230 nM on human GPR40.
